In patent US5051406A, “Pharmaceutical composition using albumin as a carrier and process for producing the same” (Nippon Hypox Laboratories Incorporated, priority 1987, dated 1991):

What was measured:
Assay type in all cases: in vivo, male rats of Wistar strain
[1] = test system: stomach mucous membrane (ulcer); assay: Formation of stomach ulcer by Indometacin-albumin composition; details: rat, fasted, oral, 20 mg/kg in terms of Indometacin, 7 hours
Protocol: It is known that while non-steroidal anti-inflammatory agents show a strong anti-inflammatory action to inflammation-affected parts, they cause hemorrhage and ulcer to the digestive system.
The test was conducted according to the method by Okabe et al. (J. Jap. Pharmacol. Vol. 29, 670 (1979)). That is, two groups of male rats of Wistar strain each weighing 180-200 g (one group consisted of 8 such rats) were fasted for about 18 hours. As test samples, there were used suspensions obtained by suspending the Indometacin-albumin composition (Indometacin 3 g albumin 30 g) obtained in Example 23 or 24 (described later) in a 1% carboxymethyl cellulose sodium solution (hereinafter referred to as 1% CMCNa) in an amount of 20 mg/kg in terms of Indometacin. These suspensions were orally administered to the rats at a proportion of 0.5 ml/100 g (rat). As a control sample, a suspension obtained by suspending an Indometacin powder in 1% CMCNa in an amount of 20 mg/kg was administered similarly. After 7 hours from the administration, all the rats were sacrificed under etherization. 8 ml of a 1% aqueous buffered formalin solution was injected into the stomach of each rat. […] Thereafter, the stomach was incised along the greater curvature and the lesioned portions (ulcer portions) generated in the mucous membrane were measured for their major axes (mm) under a stereoscopic microscope. […]

[2] = test system: carragheenin induced plantar edema; assay: Anti-inflammatory action, carragheenin induced plantar edema method; details: rat, oral, 5 mg/kg in terms of Indometacin
Protocol: The anti-inflammatory action of the Indometacin-albumin composition can also be proven by the following test by carragheenin induced plantar edema method.
A wide-mouthed glass container filled with water was placed on an electronic even balance. Into the water was immersed the sole of the right hind leg of rat up to the borders of the hair, and the resulting weight increase was measured to obtain a volume of the sole.
Three groups of male rats of Wistar strain each weighing 150-180 g (one group consisted of 6 such rats) were fasted for 18 hours and then measured for their sole volumes. These volumes were each taken as a sole volume before administration.
As test samples, there were used two suspensions, i.e. a suspension obtained by suspending the Indometacin-egg albumin composition (Indometacin 3 g / egg albumin 30 g) obtained in Example 24 (described later) in 1% CMCNa in an amount of about 5 mg/kg in terms of Indometacin and a suspension obtained by suspending an Indometacin powder in 1% CMCNa in an amount of 5 mg/kg in terms of Indometacin. These suspensions were orally administered to two sample groups at a proportion of 0.5 ml/100 g (rat). At 30 minutes after the oral administration, 0.1 ml of a physiological saline solution containing 1% of λ-carragheenin was subcutaneously administered to each rat at the sole of right hind leg and, immediately, 5 ml of water was administered orally. In 1, 3 and 5 hours after the administration of the 1% λ-carragheenin solution, the sole volume of each rat was measured. Then, the swelling percent of each individual rat, the average swelling percent of each group and the corresponding inhibition ratio were calculated according to the following formulae.
As a control sample, there was used 1% CMCNa, and it was orally administered to one control group at a proportion of 0.5 ml/100 g (rat). The results were compared with those of the sample-administered groups.
Swelling percent (%)=((B-A).div.A)×100
Inhibition ratio (%)=((C-D).div.C)×100
A: Sole volume before administration
B: Sole volume after administration
C: Average swelling percent of control group
D: Average swelling percent of sample group

[3] = Absorption of nalidixic acid-albumin composition by gastrointestinal tract (oral, rat serum level)
Protocol: It was made clear from the following test that the nalidixic acid-albumin composition (nalidixic acid content: 8.9%) obtained according to the present invention improves the absorption of nalidixic acid administered after meals.
Male rats of Wistar strain each weighing about 290 g obtained from Sankyo Labo. were used under a satiety condition.
The administration amount was 50 mg/kg in terms of nalidixic acid. A composition was administered in a form of its suspension in 1 ml of water, using an oral sonde. About 0.2 ml of blood was drawn from the eyeground of rat using a capillary (Drummond, 0.1 ml) and then centrifuged to obtain a serum.
The serum was mixed with an equal volume of methanol to deproteinize the serum. The determination for the deproteinized serum was conducted according to high performance liquid chromatography.
Column: ODS-80TM manufactured by TOYO SODA, 4.6 mm×15 cm
Mobile phase: Acetonitrile: 50 mM citric acid solution: 1 M ammonium acetate =35 : 64 : 1
Detection wavelength: 258 nm
Column temperature: Room temperature
The calibration curve was obtained by adding known nalidixic acid to a blank serum and subjecting the mixture to the same procedure as for the sample.

SMILES | Incidence [1] [%] | Ulcer index (Mean ± S.E.) ([1]; total of major axes (mm) of ulcers) | Swelling percent, 1 hr ([2]; 1 hr after λ-carragheenin) [%] | Swelling percent, 3 hr ([2]; 3 hr after λ-carragheenin) [%] | Swelling percent, 5 hr ([2]; 5 hr after λ-carragheenin) [%] | Inhibition ratio, 1 hr ([2]; vs 1% CMCNa control, 1 hr after λ-carragheenin) [%] | Inhibition ratio, 3 hr ([2]; vs 1% CMCNa control, 3 hr after λ-carragheenin) [%] | Inhibition ratio, 5 hr ([2]; vs 1% CMCNa control, 5 hr after λ-carragheenin) [%] | AUC at 8 h ([3]; 50 mg/kg in terms of nalidixic acid, 0-8 hours, read-out: area below the blood concentration-time curve (AUC) between 0 and 8 hours) [ng·h/mL] | Tmax ([3]; 50 mg/kg in terms of nalidixic acid, satiety condition, read-out: time at which blood concentration of nalidixic acid reached the maximum) [h] | Cmax ([3]; same amount (50 mg/kg), satiety condition, read-out: maximum blood concentration of nalidixic acid (powder, unit printed as μg)) [ng/mL]
COc1ccc2c(c1)c(CC(=O)O)c(C)n2C(=O)c1ccc(Cl)cc1 [Indometacin powder, Indometacin] | 100.0 | 341.7 ± 49.9 | 10.3 | 8.4 | 8.5 | 39.4 | 52.5 | 60.5 |  |  | 
CCn1cc(C(=O)O)c(=O)c2ccc(C)nc21 [nalidixic acid powder, nalidixic acid] |  |  |  |  |  |  |  |  | 34600 | 3 | ~7000
